Assay results published in BindingDB's records for doi:10.1021/jm0205696 (Abbott Laboratories, 2003).

Biological target: T1, Tyrosine-protein phosphatase non-receptor type 2 (Homo sapiens, UniProt P17706)
T1 sequence (P17706 whole entry): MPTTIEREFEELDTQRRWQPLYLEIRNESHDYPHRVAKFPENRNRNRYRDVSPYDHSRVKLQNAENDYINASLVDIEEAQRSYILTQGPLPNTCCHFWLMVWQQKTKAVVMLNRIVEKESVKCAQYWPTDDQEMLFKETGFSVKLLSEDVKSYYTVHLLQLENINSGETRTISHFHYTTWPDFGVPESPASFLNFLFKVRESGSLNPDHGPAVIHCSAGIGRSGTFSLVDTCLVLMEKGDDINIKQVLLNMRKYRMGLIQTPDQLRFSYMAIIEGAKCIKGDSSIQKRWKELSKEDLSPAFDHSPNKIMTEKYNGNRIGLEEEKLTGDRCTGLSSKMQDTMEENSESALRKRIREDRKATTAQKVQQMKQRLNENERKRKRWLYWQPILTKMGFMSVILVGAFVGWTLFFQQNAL
Test: PTP1B and TCPTP Inhibition Assay
Procedure: For each concentration of test compound or DMSO control, the initial rates were used to fit the rectangular hyperbola of Michaelis-Menten by nonlinear regression analysis. The ratio of the apparent Km/Vmax vs inhibitor concentration was plotted, and the Ki was calculated by linear regression to be the negative X-intercept.

Ki: 0.16 µM
SMILES: CCCCCNC(=O)[C@H](Cc1ccc(N(C(=O)C(=O)O)c2ccccc2C(=O)O)c(/C=C/C(N)=O)c1)NS(C)(=O)=O [2-{[2-(2-Carbamoylvinyl)-4-(2-(S)-methanesulfonylamino 2-pentylcarbamoylethyl)phenyl]oxalylamino}-benzoic Acid]
